Patent US6964949B2, “Pharmaceutical compositions for promoting the growth of gram-positive bacilli and increasing the acidity in the vagina and the use thereof” (Shanghai Jiao Da Onlly Co., Ltd., priority 2000, dated 2005)

Columns and labels:
[1] = test system: L. crispatus, C. albicans, C. tropicalis; test: Fluconazole in Sucrose Broth, Group 2 co-culture: turbidity and Gram-stained smear; format: cell-based; set-up: key to Turbidity, Group 2: ++: The cultural fluid was heavily turbid; +: The cultural fluid was turbid; +/−: The turbidity of the cultural fluid was not affirmative; key to Microbes (Gram-stained smear), Group 2: Lb: Lactobacilli; Candida; conditions: 18 hours, 37° C., candle jar
Description: (§1) • 1. Materials: • Sucrose Broth: 10.0% sucrose, 2.0% yeast extract, K2HPO40.5%, MgSO40.05%, MnSO40.1%, pH adjusted to 6.2, sterilized. • Anti-fungi drug: Fluconazole • Clinically isolated Lactobacillus strains: Lactobacillus acidophilus, Lactobacillus crispatus, and Lactobacillus jensenii. Three lactobacillus suspensions were prepared separately from each of these three lactobacillus strains. • Clinically isolated Candida strains: Candida albicans and Candida tropicalis. Two Candidal suspensions were prepared separately from each of these two candida strains. • 2.
(§2) • There were six tubes in each group and each tube contained 2ml Sucrose Broth and different concentration of Fluconazole, as shown in Table 1. • The turbidity values of three lactobacillus suspensions and two Candidal suspensions were tested by Turbidimeter and adjusted to 0.3. 50 ul of each prepared lactobacillus suspension and Candidal suspension were separately added into tubes according to Table 1. • All of these experimental tubes were put into candle jars as soon as the lactobacillus suspensions and candidal suspensions were added, and then incubated at 37° C. for 18 hours. • After 18 hours' incubation the turbidity of each tube was examined and Gram-stained smear of cultural fluid of corresponding tube was observed under microscopy to check microbes. Results

[2] = test system: L. jensenii, C. albicans, C. tropicalis; test: Fluconazole in Sucrose Broth, Group 3 co-culture: turbidity and Gram-stained smear; format: cell-based, Lactobacillus jensenii, Candida albicans, Candida tropicalis; set-up: key to Turbidity, Group 3: ++: The cultural fluid was heavily turbid; +: The cultural fluid was turbid; +/−: The turbidity of the cultural fluid was not affirmative; key to Microbes (Gram-stained smear), Group 3: Lb: Lactobacilli; Candida; conditions: 18 hours, 37° C., candle jar
Description: as §1, §2

[3] = test system: C. albicans, C. tropicalis; test: Fluconazole in Sucrose Broth, Group 4 (Candidal group): turbidity and Gram-stained smear; format: cell-based, Candida albicans, Candida tropicalis; set-up: key to Turbidity, Group 4: ++: The cultural fluid was heavily turbid; +: The cultural fluid was turbid; +/−: The turbidity of the cultural fluid was not affirmative; conditions: 18 hours; for Turbidity, Group 4: 37° C., candle jar
Description: as §1, §2

[4] = test system: three Lactobacillus strains; test: Fluconazole in Sucrose Broth: growth of the three Lactobacillus strains (Groups 1-3); format: cell-based; conditions: 400 ug/ml of Fluconazole, 18 hours
Description: as §1, §2

[5] = test system: L. acidophilus, C. albicans, C. tropicalis; test: Fluconazole in Sucrose Broth, Group 1 co-culture: turbidity and Gram-stained smear; format: cell-based; set-up: key to Turbidity, Group 1: ++: The cultural fluid was heavily turbid; +: The cultural fluid was turbid; +/−: The turbidity of the cultural fluid was not affirmative; key to Microbes (Gram-stained smear), Group 1: Lb: Lactobacilli; Candida; conditions: 18 hours, 37° C., candle jar
Description: as §1, §2

[6] = test system: vaginal secretion specimen of a patient suffering from typical bacterial vaginosis; test: Experiment Example 2: pH of culture samples (production of acids); format: cell-based; conditions: 10.0% saccharide, 1.0% yeast extract, 1.6% xanthan gum (dextrin 0.5%, starch none), pH 6.2, candle jar, 37° C.
Text: (§3) • (1)The preparation of the compositions: Different saccharides were used respectively to prepare the following compositions according to the methods mentioned above: glucose, fructose, galactose, mannose, maltose, sucrose, lactose, lactulose, mycose, cellobiose, melibiose, melitose, malto-oligosaccharide, isomaltooligosaccharide and fructooligosaccharide, dextrin, starch, and glycogen: • A. 5% glucose, 1.0% yeast extract, 1.6% xanthan gum, pH adjusted to 6.2; • B. 5% fructose, 1.0% yeast extract, 1.6% xanthan gum, pH adjusted to 6.2; • C. 5% galactose, 1.0% yeast extract, 1.6% xanthan gum, pH adjusted to 6.2; • D. 5% mannose, 1.0% yeast extract, 1.6% xanthan gum, pH adjusted to 6.2; • E. 10.0% maltose, 1.0% yeast extract, 1.6% xanthan gum, pH adjusted to 6.2; • F. 10.0% sucrose, 1.0% yeast extract, 1.6% xanthan gum, pH adjusted to 6.2; • G. 10.0% lactose, 1.0% yeast extract, 1.6% xanthan gum, pH adjusted to 6.2; • H. 10.0% lactulose, 1.0% yeast extract, 1.6% xanthan gum, pH adjusted to 6.2; • I. 10.0% cellobiose, 1.0% yeast extract, 1.6% xanthan gum, pH adjusted to 6.2; • J. 10.0% mycose, 1.0% yeast extract, 1.6% xanthan gum, pH adjusted to 6.2; • K. 10.0% melibiose, 1.0% yeast extract, 1.6% xanthan gum, pH adjusted to 6.2; • L. 10.0% melitose, 1.0% yeast extract, 1.6% xanthan gum, pH adjusted to 6.2; • M. 10.0% maltooligosaccharide, 1.0% yeast extract, 1.6% xanthan gum, pH adjusted to 6.2; • N. 10.0% isomaltooligosaccharide, 1.0% yeast extract, 1.6% xanthan gum, pH adjusted to 6.2; • O. 10.0% fructooligosaccharide, 1.0% yeast extract, 1.6% xanthan gum, pH adjusted to 6.2; • P. 10.0% dextrin, 1.0% yeast extract, 0.5% xanthan gum, pH adjusted to 6.2; • Q. 10.0% starch, 1.0% yeast extract, pH adjusted to 6.2; • R. 10.0% glycogen, 1.0% yeast extract, 1.6% xanthan gum, pH adjusted to 6.2. • (2)The preparation of the test tubes: The compositions prepared above were filled into test tubes, with each tube containing 5 ml, sterilized, and kept until use for experiment. • (3) Specimen suspension: Vaginal secretion was taken from one of the patients suffering from typical bacterial vagmosis with a cotton swab, then the swab was washed in 2 ml sterilized Trypcase-soy Broth immediately, and thus the specimen suspension was ready. […] Then the tubes were placed in a candle jar and cultivated at 37° C. After 24 hours and 48 hours' culture, culture samples were taken respectively from each of the tubes, then the Gram smears of the samples were observed and the pH values of culture samples were tested. […] Meanwhile the pH values in most of the composition tubes decreased to different levels. […] And maltose and sucrose exert better effect in promoting the growth of Gram-positive bacilli and the production of acids than that of the other kinds of oligosaccharides.

[7] = test system: Gram-positive bacilli; test: Experiment Example 2: comparison of saccharides, specimen culture, Gram smear; format: cell-based; conditions: 10.0% saccharide, 1.0% yeast extract, 1.6% xanthan gum (dextrin 0.5%, starch none), pH 6.2, candle jar, 37° C.
Text: as §3

[8] = test system: Gram-positive cocci; test: as above; format: cell-based; conditions: 10.0% saccharide, 1.0% yeast extract, 1.6% xanthan gum (dextrin 0.5%, starch none), pH 6.2, candle jar, 37° C.
Text: as §3

[9] = test system: Gram-negative cocci; test: as above; format: cell-based; conditions: 10.0% saccharide, 1.0% yeast extract, 1.6% xanthan gum (dextrin 0.5%, starch none), pH 6.2, candle jar, 37° C.
Text: as §3

[10] = test system: Gram-negative bacilli; test: as above; format: cell-based; conditions: 10.0% saccharide, 1.0% yeast extract, 1.6% xanthan gum (dextrin 0.5%, starch none), pH 6.2, candle jar, 37° C.
Text: as §3

## OC(Cn1cncn1)(Cn1cncn1)c1ccc(F)cc1F [Fluconazole]
[1]; Fluconazole 25 ug/ml
  Microbes (Gram-stained smear), Group 2: Lb
  Turbidity, Group 2: ++
[1]; Fluconazole 50 ug/ml
  Microbes (Gram-stained smear), Group 2: Lb
  Turbidity, Group 2: ++
[1]; Fluconazole 100 ug/ml
  Microbes (Gram-stained smear), Group 2: Lb
  Turbidity, Group 2: ++
[1]; Fluconazole 200 ug/ml
  Microbes (Gram-stained smear), Group 2: Lb
  Turbidity, Group 2: ++
[1]; Fluconazole 400 ug/ml
  Microbes (Gram-stained smear), Group 2: Lb
  Turbidity, Group 2: ++
[2]; Fluconazole 25 ug/ml
  Microbes (Gram-stained smear), Group 3: Lb
  Turbidity, Group 3: ++
[2]; Fluconazole 50 ug/ml
  Microbes (Gram-stained smear), Group 3: Lb
  Turbidity, Group 3: ++
[2]; Fluconazole 100 ug/ml
  Microbes (Gram-stained smear), Group 3: Lb
  Turbidity, Group 3: ++
[2]; Fluconazole 200 ug/ml
  Microbes (Gram-stained smear), Group 3: Lb
  Turbidity, Group 3: ++
[2]; Fluconazole 400 ug/ml
  Microbes (Gram-stained smear), Group 3: Lb
  Turbidity, Group 3: ++
[3]; 25 ug/ml or greater concentration of Fluconazole
  growth of the two Candidal strains: inhibited the growth
[3]; Fluconazole 25 ug/ml
  Turbidity, Group 4: +/−
[3]; Fluconazole 50 ug/ml
  Turbidity, Group 4: +/−
[3]; Fluconazole 100 ug/ml
  Turbidity, Group 4: +/−
[3]; Fluconazole 200 ug/ml
  Turbidity, Group 4: +/−
[3]; Fluconazole 400 ug/ml
  Turbidity, Group 4: +/−
[4]
  growth of three Lactobacillus strains: didn't inhibit the growth
[5]; Fluconazole 25 ug/ml
  Microbes (Gram-stained smear), Group 1: Lb
  Turbidity, Group 1: ++
[5]; Fluconazole 50 ug/ml
  Microbes (Gram-stained smear), Group 1: Lb
  Turbidity, Group 1: ++
[5]; Fluconazole 100 ug/ml
  Microbes (Gram-stained smear), Group 1: Lb
  Turbidity, Group 1: ++
[5]; Fluconazole 200 ug/ml
  Microbes (Gram-stained smear), Group 1: Lb
  Turbidity, Group 1: ++
[5]; Fluconazole 400 ug/ml
  Microbes (Gram-stained smear), Group 1: Lb
  Turbidity, Group 1: ++

## dextrin
[6]
  pH, 24 hours-culture: 6.2
  pH, 48 hours-culture: 5.8
[7]
  Bacteria G + b (Gram-positive bacilli), 24 hours-culture: G + b, +++ (About 100 bacteria or more per field vision under oil-immersion lens, even uncountable)
  Bacteria G + b (Gram-positive bacilli), 48 hours-culture: G + b, ++ (About 10-99 bacteria per field of vision under oil-immersion lens)
[8]
  Bacteria G + c (Gram-positive cocci), 24 hours-culture: G + c, + (1-9 bacteria per field of vision under oil-immersion lens)
  Bacteria G + c (Gram-positive cocci), 48 hours-culture: G + c, − (No or less than one bacterium per field of version under oil-immersion lens)
[9]
  Bacteria G − c (Gram-negative cocci), 24 hours-culture: G − c, − (No or less than one bacterium per field of version under oil-immersion lens)
  Bacteria G − c (Gram-negative cocci), 48 hours-culture: G − c, − (No or less than one bacterium per field of version under oil-immersion lens)
[10]
  Bacteria G − b (Gram-negative bacilli), 24 hours-culture: G − b, ++ (About 10-99 bacteria per field of vision under oil-immersion lens)
  Bacteria G − b (Gram-negative bacilli), 48 hours-culture: G − b, + (1-9 bacteria per field of vision under oil-immersion lens)

## glycogen
[6]
  pH, 24 hours-culture: 6.4
  pH, 48 hours-culture: 6.2
[7]
  Bacteria G + b (Gram-positive bacilli), 24 hours-culture: G + b, ++ (About 10-99 bacteria per field of vision under oil-immersion lens)
  Bacteria G + b (Gram-positive bacilli), 48 hours-culture: G + b, +++ (About 100 bacteria or more per field vision under oil-immersion lens, even uncountable)
[8]
  Bacteria G + c (Gram-positive cocci), 24 hours-culture: G + c, + (1-9 bacteria per field of vision under oil-immersion lens)
  Bacteria G + c (Gram-positive cocci), 48 hours-culture: G + c, + (1-9 bacteria per field of vision under oil-immersion lens)
[9]
  Bacteria G − c (Gram-negative cocci), 24 hours-culture: G − c, − (No or less than one bacterium per field of version under oil-immersion lens)
  Bacteria G − c (Gram-negative cocci), 48 hours-culture: G − c, − (No or less than one bacterium per field of version under oil-immersion lens)
[10]
  Bacteria G − b (Gram-negative bacilli), 24 hours-culture: G − b, ++ (About 10-99 bacteria per field of vision under oil-immersion lens)
  Bacteria G − b (Gram-negative bacilli), 48 hours-culture: G − b, ++ (About 10-99 bacteria per field of vision under oil-immersion lens)

## OC[C@H]1O[C@H](O[C@H]2O[C@H](CO)[C@@H](O)[C@H](O)[C@H]2O)[C@H](O)[C@@H](O)[C@@H]1O [Mycose, mycose]
[6]
  pH, 24 hours-culture: 4.8
  pH, 48 hours-culture: 4.6-4.8
[7]
  Bacteria G + b (Gram-positive bacilli), 24 hours-culture: G + b, ++ (About 10-99 bacteria per field of vision under oil-immersion lens)
  Bacteria G + b (Gram-positive bacilli), 48 hours-culture: G + b, +++ (About 100 bacteria or more per field vision under oil-immersion lens, even uncountable)
[8]
  Bacteria G + c (Gram-positive cocci), 24 hours-culture: G + c, + (1-9 bacteria per field of vision under oil-immersion lens)
  Bacteria G + c (Gram-positive cocci), 48 hours-culture: G + c, + (1-9 bacteria per field of vision under oil-immersion lens)
[9]
  Bacteria G − c (Gram-negative cocci), 24 hours-culture: G − c, − (No or less than one bacterium per field of version under oil-immersion lens)
  Bacteria G − c (Gram-negative cocci), 48 hours-culture: G − c, − (No or less than one bacterium per field of version under oil-immersion lens)
[10]
  Bacteria G − b (Gram-negative bacilli), 24 hours-culture: G − b, + (1-9 bacteria per field of vision under oil-immersion lens)
  Bacteria G − b (Gram-negative bacilli), 48 hours-culture: G − b, ++ (About 10-99 bacteria per field of vision under oil-immersion lens)

## starch
[6]
  pH, 24 hours-culture: 6.7
  pH, 48 hours-culture: 6.2
[7]
  Bacteria G + b (Gram-positive bacilli), 24 hours-culture: G + b, ++ (About 10-99 bacteria per field of vision under oil-immersion lens)
  Bacteria G + b (Gram-positive bacilli), 48 hours-culture: G + b, ++ (About 10-99 bacteria per field of vision under oil-immersion lens)
[8]
  Bacteria G + c (Gram-positive cocci), 24 hours-culture: G + c, + (1-9 bacteria per field of vision under oil-immersion lens)
  Bacteria G + c (Gram-positive cocci), 48 hours-culture: G + c, + (1-9 bacteria per field of vision under oil-immersion lens)
[9]
  Bacteria G − c (Gram-negative cocci), 24 hours-culture: G − c, − (No or less than one bacterium per field of version under oil-immersion lens)
  Bacteria G − c (Gram-negative cocci), 48 hours-culture: G − c, − (No or less than one bacterium per field of version under oil-immersion lens)
[10]
  Bacteria G − b (Gram-negative bacilli), 24 hours-culture: G − b, ++ (About 10-99 bacteria per field of vision under oil-immersion lens)
  Bacteria G − b (Gram-negative bacilli), 48 hours-culture: G − b, ++ (About 10-99 bacteria per field of vision under oil-immersion lens)
